Patent publication US20090023667A1 (priority 2005, published 2009)
Like-named read-outs stand apart in the source and are kept apart here.

How the values were obtained:
rice Bakanae disease = experiment: Test Example 7: control test on rice Bakanae disease, seed immersion; assay type: in vivo; conditions: seed immersion 24 hours
Method: 150 g of dry rice seeds of naturally infected with rice Bakanae disease (cultivar: Nihonbare) was immersed in a compound solution which was diluted with water to have a prescribed concentration at a volume ratio of 1:1 for 24 hours (liquid temperature; 20 degree centigrade) and air-dried. Subsequently, the seeds were soaked in water at 15 degree centigrade for 4 days and subjected to a sprouting in water at 30 degree centigrade for 24 hours, and then sowed in a nursery box. After the sowing, the seeds were incubated at 30 degree centigrade for 2 days and grown in a greenhouse. After 21 days from the sowing, the number of seedlings showing symptoms of Bankanae disease for 300 seedlings per each chemical was examined. The control value was calculated according to the following equation.
(§1) Control Value=(1−number of infected seedlings in the treated plot/number of infected seedlings in the untreated plot)×100

Pyricularia oryzae [1] = assay type: in vivo
Rhizoctonia solani [2] = experiment: Test Example 4: control test on paddy rice sheath blight, spraying; assay type: in vivo; conditions: 60 ppm
Method: A compound solution of a prescribed concentration was sprayed on three 1/5000a rice pots (cultivar: Koshihikari; 4 leaf stage). After one day from the spraying, Rhizoctonia solani cultured on a rice chaff/bran medium was inoculated on the basal of the rice plant. After 10 days from the inoculation, the extended lesion length of sheath blight of the whole stem was examined. The control value was calculated according to the following equation (3 replications).
(§2) Control Value=(1−average lesion length per a stem in the treated plot/average lesion length per a stem in the untreated plot)×100

Pyricularia oryzae [3] = experiment: whole plant or invertebrate; assay type: in vivo; conditions: for Control value: 60 ppm; for pest or weed control at 60 ppm: Pyricularia oryzae, 168 h, read-out: Control value
Pyricularia oryzae [4] = assay type: in vivo; remark: listed apart in the source
Rhizoctonia solani [5] = experiment: Test Example 5: control test on paddy rice sheath blight, submerged application; assay type: in vivo; conditions: submerged application of granule
Method: (§3) After 14 days from the treatment, Rhizoctonia solani cultured on a rice chaff/bran medium was inoculated on the basal of the rice plant. After 10 days from the inoculation, the extended lesion length of sheath blight of the whole stem was examined. The control value was calculated according to the following equation (3 replications).
as §2

Pyricularia oryzae [6] = assay type: in vivo; remark: listed apart in the source
Rhizoctonia solani [7] = experiment: Test Example 6: control test on paddy rice sheath blight, nursery box application; assay type: in vivo; conditions: nursery box application of granule
Method: as §3, with “30” for “14”
as §2

Rhizopus chinensis = experiment: Test Example 8: control test on seedling blight (Rhizopus sp), irrigation; assay type: in vivo; conditions: irrigation 500 ml per box
Method: 150 g of rice seeds (cultivar: Nihonbare) per a box was sowed in a commercial nursery box. After the sowing, the box was treated by irrigation with a compound solution which was diluted to the prescribed concentration at a ratio of 500 ml per a box before covering the seeds with soil. Infected soil, which was made by adding sterilized water to Rhizopus chinensis cultured on a PDA medium and pulverizing whole medium and mixing to a commercial soil, was used for a bed soil. For covering the seeds, a commercial soil was used as it was. After covering the seeds with soil, the seeds were incubated at 32 degree centigrade for 2 days and then grown in a greenhouse.
After 18 days from the sowing, the severity index for 300 seedlings per each compound was examined in the following criteria. The control value was calculated according to the following equation from the average severity obtained by averaging the severity index of each seedling.
Severity index 0: No lesion • 1: Root browning or fat root observed • 2: Defective growth • 3: Withered to death
(§4) Control Value=(1−average severity in the treated plot/average severity in the untreated plot)×100

[8] = test system: bacterial seedling blight; experiment: Test Example 10: control test on bacterial seedling blight, seed immersion; assay type: in vivo; conditions: seed immersion 24 hours
Method: 150 g of dry rice seeds of naturally infected with bacterial seedling blight (cultivar: Nihonbare) was immersed in a compound solution which was diluted with water to have a prescribed concentration at a volume ratio of 1:1 (liquid temperature; 20 degree centigrade) for 24 hours and air-dried. Subsequently, the seeds were soaked in water at 15 degree centigrade for 4 days and subjected to a sprouting in water at 30 degree centigrade for 24 hours, and then sowed in a nursery box. After the sowing, the seeds were incubated at 30 degree centigrade for 2 days and grown in a greenhouse. After 21 days from the sowing, the severity index for 300 seedlings per each compound was examined on the basis of the following criteria, and the control value was calculated according to the following equation from the average severity obtained by averaging the severity index of each seedling.
Severity index 0: healthy seedling • 1: yellowing or etiolated seedling • 2: dead seedling (withered)
as §4

Pythium sp = experiment: Test Example 9: control test on seedling blight (Pythium sp), irrigation; assay type: in vivo; conditions: irrigation 500 ml per box
Method: 150 g of rice seeds of rice (cultivar: Nihonbare) per a box was sowed on a commercial nursery box. After the sowing, the box was treated by irrigation with a compound solution which was diluted to the prescribed concentration at a ratio of 500 ml per a box before covering the seeds with soil. Infected soil, which was made by adding sterilized water to Pythium sp cultured on a PDA medium and pulverizing whole medium and mixing to a commercial soil, was used for a bed soil. After covering the seeds with soil, the seeds were incubated at 30 degree centigrade for 2 days and then arranged under a condition of 5 degree centigrade for 2 days to enhance disease emergence. After the low temperature treatment, the seeds were grown in a greenhouse.
as §1

clubroot = experiment: Test Example 11: control test on clubroot of cabbages, soil treatment; assay type: in vivo, Plasmodiophora brassicae; conditions: dust formulation mixed in soil, 60 gai/10a
Method: A dust formulation in a prescribed amount was mixed in soil and cabbage seedlings (cultivar: Shiki-dori) were planted in the field where was recognized to be infected by clubroot. After 60 days from the treatment, plants were picked out, and clubroot formation was examined according to the degree of severity. The control value was calculated according to the following equation from the average severity obtained by averaging the severity index in each plot.
Severity index 0: No clubroot formed • 1: Cluroot was formed at a portion of from not less than 1% to less than 25% of the whole root • 2: Cluroot was formed at a portion of from not less than 25% to less than 50% of the whole root • 3: Cluroot was formed at a portion of from not less than 50% to less than 75% of the whole root • 4: Cluroot was formed at a portion of not less than 75% of the whole root
as §4

[9] = rice blast, sprayed at 60 ppm active ingredient, lesions after 7 days

Compound `CCCCNC(=O)n1c(NC(=O)OC)nc2ccccc21` [Benomyl, reference compound] has a Control value (rice Bakanae disease; 1000 ppm) of 98.
In the case of `CCC(C)C(CNC(=O)c1nc2ccccc2s1)NC(=O)OCC(F)(F)F` (stereo not shown) [Compound 33], the Control value (rice Bakanae disease; 60 ppm) is reported as 8, the “Effect (class of control value)” value (Pyricularia oryzae [1]; in vivo) is reported as “A (key: A: Not less than 80%; B: Not less than 50% to less than 80%; C: Less than 50%)” and the Control value (Rhizoctonia solani [2]) is reported as 6. For the same compound, the Control value (Pyricularia oryzae [3]) was 96.
For `Cc1ccc(C(=O)NC(CNC(=O)OCC(F)(F)F)C(C)C)cc1` (stereo not shown) [Compound 6, N-(2,2,2-trifluoroethyloxycarbonyl)-N′-(4-methylbenzoyl)-3-methyl-1,2-butanediamine], the Control value (Pyricularia oryzae [4]; rice blast, nursery box application of granule, 7.5 gai/box) was 96, the “Effect (class of control value)” value (Pyricularia oryzae [1]; [9]) was “A (Not less than 80%)” and the Control value (Rhizoctonia solani [5]; 225 gai/10a) was 5. For the same compound, the Control value (Pyricularia oryzae [6]; rice blast, submerged application of granule, 225 gai/10a) was 95, the Control value (Rhizoctonia solani [7]; 7.5 gai/box) was 4 and the Control value (Rhizoctonia solani [2]) was 3. The pest or weed control at 60 ppm (Pyricularia oryzae [3]) was 97%.
`CC(C)NC(=O)N1CC(=O)N(c2cc(Cl)cc(Cl)c2)C1=O` [Iprodione, reference compound] showed a Control value (Rhizopus chinensis; 1000 ppm) of 89.
In the case of `Cc1ccc(C(=O)NC(CNC(=O)OC2CCCCC2Cl)C(C)C)cc1` (stereo not shown) [Compound 17, N-(2-chlorocyclohexyloxycarbonyl)-N′-(4-methylbenzoyl)-3-methyl-1,2-butanediamine], the “Effect (class of control value)” value (Pyricularia oryzae [1]; [9]) is reported as “A (Not less than 80%)”, the Control value (Rhizopus chinensis; 60 ppm) is reported as 3 and the Control value (Rhizoctonia solani [2]) is reported as 5. The pest or weed control at 60 ppm (Pyricularia oryzae [3]) was 95%.
For `CCC(C)C(CNC(=O)c1ccc(C)cc1)NC(=O)OCC(F)(F)F` (stereo not shown) [Compound 25], the “Effect (class of control value)” value (Pyricularia oryzae [1]; in vivo) was “A (key: A: Not less than 80%; B: Not less than 50% to less than 80%; C: Less than 50%)”, the Control value (Rhizoctonia solani [5]; 225 gai/10a) was 5 and the Control value (Pyricularia oryzae [6]; in vivo) was 95.
Work on `CCn1cc(C(=O)O)c(=O)c2cc3c(cc21)OCO3` [Oxolinic acid, reference compound] yielded a Control value ([8]; 500 ppm) of 89.
In the case of `N#Cc1c[nH]cc1-c1cccc2c1OC(F)(F)O2` [Fludioxonil, reference compound], the Control value (rice Bakanae disease; 250 ppm) is reported as 99.
For `Cc1ccc(C(=O)NCC(NC(=O)OC(C)C(F)(F)F)C(C)C)cc1` (stereo not shown) [Compound 30], the “Effect (class of control value)” value (Pyricularia oryzae [1]; in vivo) was “A (key: A: Not less than 80%; B: Not less than 50% to less than 80%; C: Less than 50%)”, the Control value (Rhizoctonia solani [5]; 225 gai/10a) was 7 and the Control value (Pyricularia oryzae [6]; in vivo) was 97.
`Cc1cc(O)no1` [Hydroxyisoxazole, reference compound] was tested, and the Control value (Pythium sp; 800 ppm) was 90.
`CNC(=O)/C(=N/OC)c1ccccc1CO/N=C(C)/C(=N/OC)C(/C)=N/OC` [Oryzastrobin, reference compound] showed a Control value (Rhizoctonia solani [5]; 100 gai/10a) of 95, a Control value (Pyricularia oryzae [6]; rice blast, submerged application of granule, 100 gai/10a) of 99 and a Control value (Rhizoctonia solani [7]; 3.5 gai/box) of 94.
With `CCC(C)C(CNC(=O)c1cc2ccccc2o1)NC(=O)OCC(F)(F)F` (stereo not shown) [Compound 32] the Control value (rice Bakanae disease; 60 ppm) was 12, the “Effect (class of control value)” value (Pyricularia oryzae [1]; in vivo) was “A (key: A: Not less than 80%; B: Not less than 50% to less than 80%; C: Less than 50%)” and the Control value (Rhizoctonia solani [2]) was 5. It also gave a Control value (Pyricularia oryzae [3]) of 95.
With `C=C(Cl)COC(=O)NC(CNC(=O)c1ccc(C)cc1)C(C)C` (stereo not shown) [Compound 15] the Control value (Pyricularia oryzae [4]; in vivo) was 95, the “Effect (class of control value)” value (Pyricularia oryzae [1]; in vivo) was “A (key: A: Not less than 80%; B: Not less than 50% to less than 80%; C: Less than 50%)” and the Control value (Rhizoctonia solani [5]; 225 gai/10a) was 5. The Control value (Pythium sp; 60 ppm) was 4, the Control value (Pyricularia oryzae [6]; in vivo) was 95 and the Control value (Rhizoctonia solani [7]; 7.5 gai/box) was 3. The Control value (Rhizoctonia solani [2]) was 4 and the Control value (Pyricularia oryzae [3]) was 94.
For `CC(C)C(CNC(=O)c1cc2ccccc2o1)NC(=O)OCC(F)(F)F` (stereo not shown) [Compound 28], the Control value (Pyricularia oryzae [4]; in vivo) was 96, the “Effect (class of control value)” value (Pyricularia oryzae [1]; in vivo) was “A (key: A: Not less than 80%; B: Not less than 50% to less than 80%; C: Less than 50%)” and the Control value (Rhizoctonia solani [5]; 225 gai/10a) was 6. For the same compound, the Control value ([8]; 60 ppm) was 6, the Control value (Pyricularia oryzae [6]; in vivo) was 96 and the Control value (Rhizoctonia solani [7]; 7.5 gai/box) was 5. It also gave a Control value (Rhizoctonia solani [2]) of 6 and a Control value (Pyricularia oryzae [3]) of 97.
For `CC(C)(C)C(CNC(=O)c1cc2ccccc2o1)NC(=O)OCC(F)(F)F` (stereo not shown) [Compound 31], the “Effect (class of control value)” value (Pyricularia oryzae [1]; in vivo) was “A (key: A: Not less than 80%; B: Not less than 50% to less than 80%; C: Less than 50%)”, the Control value (Rhizoctonia solani [5]; 225 gai/10a) was 4 and the Control value (Rhizoctonia solani [7]; 7.5 gai/box) was 2. It also gave a Control value (Rhizoctonia solani [2]) of 4 and a Control value (Pyricularia oryzae [3]) of 96.
For `N#Cc1c(Cl)c(Cl)c(Cl)c(C#N)c1Cl` [TPN, reference compound], the Control value (Rhizopus chinensis; 800 ppm) was 87.
`Cc1ccc(C(=O)NCC(NC(=O)OCC(F)(F)F)C(C)(C)C)cc1` (stereo not shown) [Compound 24] was tested, and the “Effect (class of control value)” value (Pyricularia oryzae [1]; in vivo) was “A (key: A: Not less than 80%; B: Not less than 50% to less than 80%; C: Less than 50%)”, the Control value (Rhizoctonia solani [5]; 225 gai/10a) was 4 and the Control value (Rhizoctonia solani [7]; 7.5 gai/box) was 4. It also gave a Control value (Rhizoctonia solani [2]) of 2 and a Control value (Pyricularia oryzae [3]) of 97.
Compound `O=[N+]([O-])c1ccc(NS(=O)(=O)c2ccc(Cl)c(C(F)(F)F)c2)c(Cl)c1` [Flusulfamide] has a Control value (clubroot) of 93.
`CC(C)C(CNC(=O)c1cc2ccccc2s1)NC(=O)OCC(F)(F)F` (stereo not shown) [Compound 34] was tested, and the “Effect (class of control value)” value (Pyricularia oryzae [1]; in vivo) was “A (key: A: Not less than 80%; B: Not less than 50% to less than 80%; C: Less than 50%)”, the Control value (Rhizopus chinensis; 60 ppm) was 3 and the Control value (Rhizoctonia solani [2]) was 7. For the same compound, the Control value (Pyricularia oryzae [3]) was 97.
For `CNC(=O)/C(=N/OC)c1ccccc1Oc1ccccc1` [Metominostrobin, reference compound], the Control value (Rhizoctonia solani [5]; 150 gai/10a) was 95 and the Control value (Pyricularia oryzae [6]; rice blast, submerged application of granule, 150 gai/10a) was 98.
